The EC50 is the concentration at which the effect is half-maximal. For orientation: AC50 means the concentration at which the activity in the assay is half-maximal. What is called IC50 is the concentration needed to halve the response being measured.

For data set [1], the target named is Beta-2 adrenergic receptor (Homo sapiens, UniProt P07550). Briefly: beta2AR agonists driving receptor internalization, dose response, cell-based, FAP fluorogen, flow cytometry, cherry pick 1 (AID 588763). It counts as functional. (In general: Flow cytometry measures light scatter and fluorescence of single cells or particles in a stream.)
The target of data set [2] is Voltage-gated inwardly rectifying potassium channel KCNH2 (Homo sapiens, UniProt Q12809). Particulars: Potency.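 Also: confirmatory quantitative high-throughput screen measuring inhibition of hERG channel activity.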
Data set [3] deals with T1, Hexokinase-1 (Homo sapiens, UniProt P19367).
T1 sequence (P19367 whole entry): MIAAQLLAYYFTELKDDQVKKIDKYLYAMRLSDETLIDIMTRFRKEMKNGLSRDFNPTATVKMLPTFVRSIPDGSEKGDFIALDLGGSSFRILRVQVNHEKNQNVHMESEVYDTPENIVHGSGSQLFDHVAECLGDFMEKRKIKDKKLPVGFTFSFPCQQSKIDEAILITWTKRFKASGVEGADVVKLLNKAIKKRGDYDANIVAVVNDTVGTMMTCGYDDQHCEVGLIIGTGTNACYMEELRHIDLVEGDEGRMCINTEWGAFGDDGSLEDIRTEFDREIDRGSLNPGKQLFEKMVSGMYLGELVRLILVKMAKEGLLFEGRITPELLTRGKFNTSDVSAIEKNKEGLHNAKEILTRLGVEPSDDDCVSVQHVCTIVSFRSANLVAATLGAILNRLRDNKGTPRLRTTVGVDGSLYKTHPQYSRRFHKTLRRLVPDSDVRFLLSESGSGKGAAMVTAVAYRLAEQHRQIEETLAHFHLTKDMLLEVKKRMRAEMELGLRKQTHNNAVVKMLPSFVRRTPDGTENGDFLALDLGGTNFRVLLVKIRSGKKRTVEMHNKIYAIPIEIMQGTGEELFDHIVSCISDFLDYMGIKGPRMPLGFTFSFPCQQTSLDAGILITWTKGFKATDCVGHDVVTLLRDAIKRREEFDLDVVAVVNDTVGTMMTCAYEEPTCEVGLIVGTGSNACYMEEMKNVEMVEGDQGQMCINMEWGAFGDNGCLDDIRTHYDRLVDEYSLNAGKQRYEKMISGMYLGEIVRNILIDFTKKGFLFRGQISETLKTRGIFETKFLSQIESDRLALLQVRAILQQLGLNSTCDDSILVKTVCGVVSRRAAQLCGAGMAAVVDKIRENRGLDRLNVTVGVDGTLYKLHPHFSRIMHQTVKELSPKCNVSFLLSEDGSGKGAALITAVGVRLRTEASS
In words: SAR analysis of small molecule inhibitors of hexokinase domain containing I (HKDC1) in the hexokinase 1 selectivity assay. [Related pubchem assays (depositor defined):AID493160, AID493190]. It counts as functional.

Data set [4] addresses T2, Hexokinase HKDC1 (Homo sapiens, UniProt Q2TB90).
T2 sequence (Q2TB90 whole entry): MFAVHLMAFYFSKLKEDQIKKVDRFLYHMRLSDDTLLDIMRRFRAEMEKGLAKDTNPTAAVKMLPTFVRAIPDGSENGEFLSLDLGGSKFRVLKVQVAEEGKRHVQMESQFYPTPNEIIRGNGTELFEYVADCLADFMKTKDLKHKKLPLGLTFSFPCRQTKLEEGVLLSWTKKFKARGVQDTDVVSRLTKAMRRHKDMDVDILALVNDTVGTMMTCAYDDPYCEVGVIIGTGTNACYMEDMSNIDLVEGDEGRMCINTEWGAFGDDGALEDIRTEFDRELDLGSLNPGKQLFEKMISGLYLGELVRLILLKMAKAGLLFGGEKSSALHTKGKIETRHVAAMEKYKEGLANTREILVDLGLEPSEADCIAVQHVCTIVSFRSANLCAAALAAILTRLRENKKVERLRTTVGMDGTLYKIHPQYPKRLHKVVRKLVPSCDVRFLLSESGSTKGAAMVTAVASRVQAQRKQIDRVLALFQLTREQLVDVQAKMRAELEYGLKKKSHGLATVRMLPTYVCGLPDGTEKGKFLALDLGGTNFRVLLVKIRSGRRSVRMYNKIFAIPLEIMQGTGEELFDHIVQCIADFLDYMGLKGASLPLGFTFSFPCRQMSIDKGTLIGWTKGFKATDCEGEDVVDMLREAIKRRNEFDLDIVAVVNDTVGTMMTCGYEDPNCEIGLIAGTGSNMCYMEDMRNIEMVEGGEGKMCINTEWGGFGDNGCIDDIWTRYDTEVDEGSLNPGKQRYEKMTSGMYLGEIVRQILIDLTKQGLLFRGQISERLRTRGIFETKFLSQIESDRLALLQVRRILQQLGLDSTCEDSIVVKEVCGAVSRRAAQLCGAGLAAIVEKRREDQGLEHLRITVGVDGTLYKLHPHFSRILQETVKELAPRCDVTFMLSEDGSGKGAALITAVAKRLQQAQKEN
Briefly: SAR analysis of small molecule inhibitors of hexokinase domain containing I (HKDC1). [Related pubchem assays (depositor defined):AID493160, AID493190]. It counts as functional.

In data set [5] the target is Beta-galactosidase (Escherichia coli, UniProt Q8VNN2). In words: PubChem AID 485352. The class given is functional.
Data set [6] concerns the target T3, Type-1 angiotensin II receptor (Homo sapiens, UniProt P30556).
T3 sequence (P30556 whole entry): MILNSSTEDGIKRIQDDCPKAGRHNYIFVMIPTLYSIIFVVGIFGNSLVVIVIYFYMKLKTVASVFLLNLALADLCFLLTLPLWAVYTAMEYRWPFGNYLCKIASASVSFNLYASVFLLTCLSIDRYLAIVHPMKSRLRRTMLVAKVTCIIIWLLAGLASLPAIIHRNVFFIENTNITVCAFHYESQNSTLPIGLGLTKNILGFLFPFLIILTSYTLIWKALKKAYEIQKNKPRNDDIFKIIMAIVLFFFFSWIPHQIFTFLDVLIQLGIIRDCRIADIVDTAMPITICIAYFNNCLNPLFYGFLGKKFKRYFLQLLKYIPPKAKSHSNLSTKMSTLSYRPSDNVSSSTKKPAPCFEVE
In words: AT1 receptor antagonists, dose response, selectivity assay for APJ receptor antagonist project, cell-based, uHTS hits (AID 463214).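 Also: antagonist potency against angiotensin II stimulated AT1 response.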 The class given is functional.

Data set [7] deals with T4, Protein skinhead-1 (Caenorhabditis elegans, UniProt P34707).
T4 sequence (P34707 whole entry): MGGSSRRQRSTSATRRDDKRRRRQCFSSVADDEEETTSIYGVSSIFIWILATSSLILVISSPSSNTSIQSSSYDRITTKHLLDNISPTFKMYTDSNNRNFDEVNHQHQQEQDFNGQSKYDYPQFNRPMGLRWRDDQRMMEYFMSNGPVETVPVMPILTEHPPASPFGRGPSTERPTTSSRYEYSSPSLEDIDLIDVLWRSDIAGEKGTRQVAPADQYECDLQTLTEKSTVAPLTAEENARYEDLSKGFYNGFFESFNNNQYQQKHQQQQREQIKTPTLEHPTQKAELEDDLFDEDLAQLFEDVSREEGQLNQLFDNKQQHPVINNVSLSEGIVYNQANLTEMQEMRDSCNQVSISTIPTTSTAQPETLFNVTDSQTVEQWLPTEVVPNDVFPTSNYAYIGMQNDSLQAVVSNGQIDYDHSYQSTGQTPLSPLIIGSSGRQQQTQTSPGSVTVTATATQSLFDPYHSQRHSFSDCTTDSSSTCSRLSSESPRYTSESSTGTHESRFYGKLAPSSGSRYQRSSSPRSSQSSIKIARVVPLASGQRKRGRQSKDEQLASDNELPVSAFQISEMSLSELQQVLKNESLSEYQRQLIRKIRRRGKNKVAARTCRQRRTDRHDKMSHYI
The class given is functional.

Data set [8] can be described thus: cells. It counts as functional, cell-based.
The nature of data set [9]: cells. It counts as functional, cell-based. The source holds these as a separate data set.
The target of data set [10] is Cytochrome P450 2C19 (Homo sapiens, UniProt P33261). In words: Cytochrome panel assay with activity outcomes. Panel member name: p450-cyp2c19 Compounds with AC50 equal or less than 10 uM are considered active. The class given is functional. Particulars: read-out: AC50.
Data set [11] addresses Cytochrome P450 2D6 (Homo sapiens, UniProt P10635).
Data set [12] concerns the target Trypsin (Sus scrofa, UniProt P00761). In words: porcine trypsin inhibitors, dose response, selectivity assay for Rce1 protease inhibitor project, biochemical, quenched peptide fluorescence, cherry-pick (AID 488789).
Data set [13] deals with T5, CAAX prenyl protease 2 (Saccharomyces cerevisiae S288c, UniProt Q03530).
T5 sequence (Q03530 whole entry): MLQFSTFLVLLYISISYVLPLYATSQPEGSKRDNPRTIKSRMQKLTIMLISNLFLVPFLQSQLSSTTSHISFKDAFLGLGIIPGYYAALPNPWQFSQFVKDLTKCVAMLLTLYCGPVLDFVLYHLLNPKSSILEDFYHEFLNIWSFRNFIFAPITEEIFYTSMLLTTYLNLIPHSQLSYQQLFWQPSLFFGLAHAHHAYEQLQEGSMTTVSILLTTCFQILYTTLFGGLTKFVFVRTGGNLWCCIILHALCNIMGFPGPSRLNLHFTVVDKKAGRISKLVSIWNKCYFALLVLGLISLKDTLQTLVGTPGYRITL
It counts as biochemical.

For data set [14], the target named is CAAX prenyl protease 2 (Homo sapiens, UniProt Q9Y256). In words: human Rce1 protease inhibitors, dose response, biochemical, yeast membranes, quenched-peptide fluorescence, cherry-pick (AID 588849).
Data set [15] addresses T6, RNA-binding protein pos-1 (Caenorhabditis elegans, UniProt G5EF15).
T6 sequence (G5EF15 whole entry): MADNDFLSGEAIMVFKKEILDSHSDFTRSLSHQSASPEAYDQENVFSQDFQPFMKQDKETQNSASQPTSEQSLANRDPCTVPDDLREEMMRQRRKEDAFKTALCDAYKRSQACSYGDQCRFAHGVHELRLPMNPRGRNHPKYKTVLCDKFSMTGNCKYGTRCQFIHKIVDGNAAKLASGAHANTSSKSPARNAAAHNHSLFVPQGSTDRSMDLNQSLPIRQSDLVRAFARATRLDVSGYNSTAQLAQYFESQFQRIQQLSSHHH
Briefly: inhibitors of POS-1/mex-3 RNA binding, dose response, biochemical, fluorescence polarization (AID 1964).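 Also: purified POS-1 fused to maltose binding protein made in E. coli; potency of compounds blocking POS-1 binding to fluorescent RNA.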 For orientation: Fluorescence polarisation rises when a labelled molecule tumbles more slowly, as on binding a larger partner.

The target of data set [16] is T7, Zinc finger protein mex-5 (Caenorhabditis elegans, UniProt Q9XUB2).
T7 sequence (Q9XUB2 whole entry): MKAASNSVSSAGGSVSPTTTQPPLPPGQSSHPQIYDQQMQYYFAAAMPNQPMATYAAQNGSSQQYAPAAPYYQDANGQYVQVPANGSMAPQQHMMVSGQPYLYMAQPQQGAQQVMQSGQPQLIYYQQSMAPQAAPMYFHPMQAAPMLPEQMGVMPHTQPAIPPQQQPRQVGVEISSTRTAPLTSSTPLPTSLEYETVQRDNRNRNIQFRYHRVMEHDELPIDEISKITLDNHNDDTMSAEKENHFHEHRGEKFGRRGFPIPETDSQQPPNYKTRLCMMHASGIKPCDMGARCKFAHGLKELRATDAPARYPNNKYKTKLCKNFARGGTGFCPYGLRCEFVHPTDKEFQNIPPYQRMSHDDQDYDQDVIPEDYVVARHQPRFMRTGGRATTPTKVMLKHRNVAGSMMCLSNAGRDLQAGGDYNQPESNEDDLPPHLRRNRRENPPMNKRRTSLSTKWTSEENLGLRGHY
In words: MEX-5/TCR-2 RNA interaction inhibitors, dose response, biochemical, C. elegans, fluorescence polarization (AID 1960).

Data set [17] has as its target Dual specificity tyrosine-phosphorylation-regulated kinase 1A (Rattus norvegicus, UniProt Q63470). The class given is biochemical, Homo sapiens.

Structures can show the parent of a compound that is named as a salt. The source made the active and inactive calls. Bounds are passed on as bounds.

Chain of Voltage-gated inwardly rectifying potassium channel KCNH2 (Q12809 whole entry): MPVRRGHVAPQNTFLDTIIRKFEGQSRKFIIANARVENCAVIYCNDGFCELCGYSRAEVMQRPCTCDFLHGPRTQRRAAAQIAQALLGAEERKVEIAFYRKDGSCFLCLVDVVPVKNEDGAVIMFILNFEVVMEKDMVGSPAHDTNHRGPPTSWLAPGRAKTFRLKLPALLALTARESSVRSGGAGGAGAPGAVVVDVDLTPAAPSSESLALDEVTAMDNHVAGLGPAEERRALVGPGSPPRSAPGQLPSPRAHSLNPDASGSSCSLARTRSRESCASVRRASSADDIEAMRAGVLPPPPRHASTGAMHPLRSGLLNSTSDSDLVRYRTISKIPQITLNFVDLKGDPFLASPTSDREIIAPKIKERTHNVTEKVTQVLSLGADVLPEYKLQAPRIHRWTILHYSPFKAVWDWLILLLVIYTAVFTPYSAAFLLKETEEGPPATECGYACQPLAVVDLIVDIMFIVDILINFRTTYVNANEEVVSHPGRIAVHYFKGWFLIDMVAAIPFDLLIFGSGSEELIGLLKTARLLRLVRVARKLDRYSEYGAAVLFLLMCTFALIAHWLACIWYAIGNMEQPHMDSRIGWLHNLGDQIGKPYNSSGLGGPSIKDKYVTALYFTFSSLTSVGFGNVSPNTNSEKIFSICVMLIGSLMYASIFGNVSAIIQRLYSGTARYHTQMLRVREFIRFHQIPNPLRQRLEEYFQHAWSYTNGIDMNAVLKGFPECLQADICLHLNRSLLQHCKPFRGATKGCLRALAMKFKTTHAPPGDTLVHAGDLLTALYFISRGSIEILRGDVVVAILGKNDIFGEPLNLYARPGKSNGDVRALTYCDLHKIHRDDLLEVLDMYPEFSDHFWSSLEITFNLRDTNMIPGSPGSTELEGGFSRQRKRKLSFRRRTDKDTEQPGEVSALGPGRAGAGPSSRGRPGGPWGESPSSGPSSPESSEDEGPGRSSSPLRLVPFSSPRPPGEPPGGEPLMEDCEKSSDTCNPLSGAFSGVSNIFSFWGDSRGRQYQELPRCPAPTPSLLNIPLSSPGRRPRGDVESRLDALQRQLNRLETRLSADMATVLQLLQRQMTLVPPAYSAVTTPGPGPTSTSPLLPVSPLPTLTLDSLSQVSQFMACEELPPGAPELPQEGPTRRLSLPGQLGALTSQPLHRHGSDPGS
Chain of Beta-2 adrenergic receptor (P07550 whole entry): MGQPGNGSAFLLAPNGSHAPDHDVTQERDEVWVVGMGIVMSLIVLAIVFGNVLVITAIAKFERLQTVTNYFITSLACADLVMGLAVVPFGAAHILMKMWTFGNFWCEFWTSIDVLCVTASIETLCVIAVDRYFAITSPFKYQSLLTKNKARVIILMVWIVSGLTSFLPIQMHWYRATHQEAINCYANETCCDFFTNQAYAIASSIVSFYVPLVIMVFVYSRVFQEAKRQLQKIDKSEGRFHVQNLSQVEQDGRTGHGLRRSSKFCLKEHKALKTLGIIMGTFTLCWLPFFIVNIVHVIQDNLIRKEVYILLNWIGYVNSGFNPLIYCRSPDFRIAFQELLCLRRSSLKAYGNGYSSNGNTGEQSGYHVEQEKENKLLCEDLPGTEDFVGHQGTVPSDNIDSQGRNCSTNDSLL
Chain of Beta-galactosidase (Q8VNN2 whole entry): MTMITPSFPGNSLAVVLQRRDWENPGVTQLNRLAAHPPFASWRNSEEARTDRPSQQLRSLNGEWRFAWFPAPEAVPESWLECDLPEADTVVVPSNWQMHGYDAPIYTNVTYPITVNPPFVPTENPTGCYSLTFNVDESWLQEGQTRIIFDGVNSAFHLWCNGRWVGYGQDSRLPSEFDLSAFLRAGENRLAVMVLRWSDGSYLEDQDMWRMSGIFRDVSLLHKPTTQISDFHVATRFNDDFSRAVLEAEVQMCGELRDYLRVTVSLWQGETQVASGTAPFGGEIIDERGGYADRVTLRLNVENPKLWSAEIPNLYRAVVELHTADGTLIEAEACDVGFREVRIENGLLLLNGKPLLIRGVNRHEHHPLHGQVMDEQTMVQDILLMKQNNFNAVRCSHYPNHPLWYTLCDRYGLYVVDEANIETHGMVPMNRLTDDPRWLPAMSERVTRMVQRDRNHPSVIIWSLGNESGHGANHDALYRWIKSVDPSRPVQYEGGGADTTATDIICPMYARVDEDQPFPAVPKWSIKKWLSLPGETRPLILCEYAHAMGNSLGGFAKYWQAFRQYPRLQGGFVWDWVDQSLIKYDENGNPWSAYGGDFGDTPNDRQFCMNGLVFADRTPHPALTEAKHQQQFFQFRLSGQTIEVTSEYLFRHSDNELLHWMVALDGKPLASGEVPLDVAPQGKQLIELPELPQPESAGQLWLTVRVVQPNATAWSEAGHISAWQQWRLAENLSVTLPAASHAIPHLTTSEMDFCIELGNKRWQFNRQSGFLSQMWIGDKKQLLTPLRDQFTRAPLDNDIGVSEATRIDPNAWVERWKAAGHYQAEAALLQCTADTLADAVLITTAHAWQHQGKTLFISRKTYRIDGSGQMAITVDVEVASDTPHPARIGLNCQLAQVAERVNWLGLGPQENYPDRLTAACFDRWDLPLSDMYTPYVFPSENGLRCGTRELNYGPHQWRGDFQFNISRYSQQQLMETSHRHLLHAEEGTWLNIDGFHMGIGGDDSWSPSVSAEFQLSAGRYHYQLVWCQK
Chain of Trypsin (P00761 whole entry): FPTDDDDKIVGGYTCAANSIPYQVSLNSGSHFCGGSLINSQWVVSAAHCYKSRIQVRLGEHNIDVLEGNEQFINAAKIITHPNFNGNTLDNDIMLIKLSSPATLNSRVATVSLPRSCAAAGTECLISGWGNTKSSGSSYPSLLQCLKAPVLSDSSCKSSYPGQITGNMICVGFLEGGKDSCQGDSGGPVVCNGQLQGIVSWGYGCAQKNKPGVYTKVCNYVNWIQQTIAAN
Chain of CAAX prenyl protease 2 (Homo sapiens, UniProt Q9Y256) (Q9Y256 whole entry): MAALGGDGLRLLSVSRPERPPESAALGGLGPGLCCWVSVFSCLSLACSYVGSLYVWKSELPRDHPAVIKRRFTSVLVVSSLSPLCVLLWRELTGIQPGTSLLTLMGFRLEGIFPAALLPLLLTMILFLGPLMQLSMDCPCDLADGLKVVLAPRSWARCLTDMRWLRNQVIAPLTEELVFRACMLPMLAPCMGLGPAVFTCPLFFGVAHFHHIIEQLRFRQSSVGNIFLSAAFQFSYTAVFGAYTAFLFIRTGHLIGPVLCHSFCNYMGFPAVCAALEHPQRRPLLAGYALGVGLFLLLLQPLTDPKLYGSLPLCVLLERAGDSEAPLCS
Chain of Cytochrome P450 2C19 (P33261 whole entry): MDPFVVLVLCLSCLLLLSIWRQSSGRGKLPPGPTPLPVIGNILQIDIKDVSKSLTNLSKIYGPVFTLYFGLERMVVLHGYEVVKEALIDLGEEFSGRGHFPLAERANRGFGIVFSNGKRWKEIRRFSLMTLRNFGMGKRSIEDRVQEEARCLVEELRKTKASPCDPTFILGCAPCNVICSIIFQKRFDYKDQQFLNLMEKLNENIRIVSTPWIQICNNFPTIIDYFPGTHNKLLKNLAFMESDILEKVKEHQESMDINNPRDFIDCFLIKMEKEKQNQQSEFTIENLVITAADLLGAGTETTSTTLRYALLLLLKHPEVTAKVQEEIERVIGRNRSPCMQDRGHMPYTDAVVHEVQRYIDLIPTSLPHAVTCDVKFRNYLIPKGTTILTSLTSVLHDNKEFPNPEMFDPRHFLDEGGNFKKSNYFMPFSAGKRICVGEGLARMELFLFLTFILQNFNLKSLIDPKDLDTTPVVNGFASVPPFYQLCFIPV
Chain of Cytochrome P450 2D6 (P10635 whole entry): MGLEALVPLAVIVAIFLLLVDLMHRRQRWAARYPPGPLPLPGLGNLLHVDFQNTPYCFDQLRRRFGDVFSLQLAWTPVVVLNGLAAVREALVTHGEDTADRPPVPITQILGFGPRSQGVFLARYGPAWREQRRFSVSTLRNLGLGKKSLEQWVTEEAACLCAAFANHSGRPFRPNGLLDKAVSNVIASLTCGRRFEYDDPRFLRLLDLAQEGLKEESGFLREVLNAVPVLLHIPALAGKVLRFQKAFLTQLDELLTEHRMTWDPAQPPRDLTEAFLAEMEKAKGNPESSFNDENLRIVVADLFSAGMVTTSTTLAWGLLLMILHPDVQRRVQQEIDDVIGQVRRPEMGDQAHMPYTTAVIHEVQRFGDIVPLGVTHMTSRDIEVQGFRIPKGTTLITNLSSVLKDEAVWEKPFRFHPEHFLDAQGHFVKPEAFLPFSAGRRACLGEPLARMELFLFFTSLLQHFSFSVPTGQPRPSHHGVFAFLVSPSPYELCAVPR

With `C=CCn1c(CCNC(=O)c2cccs2)nnc1SCC(=O)c1cccc([N+](=O)[O-])c1`, the EC50 in data set [1] was 0.133 µM (active).
Turning to `CCCN1CCC[C@@H]2Cc3n[nH]cc3C[C@H]21` [QUINPIROLE HYDROCHLORIDE], the half-maximal activity concentration (AC50) in data set [2] is 11.2 µM (inconclusive).
As to `Cc1ccc(/C=C/c2nc3ccccc3c(=O)n2CCc2ccccc2)cc1`, the IC50 in data set [3] and in data set [4] was > 80 µM (inactive) throughout.
For the compound `O=C(COC(=O)c1cccnc1Cl)c1ccc(Cl)cc1Cl`, in data set [5], the EC50 was > 40 µM (inactive). Besides, the IC50 in data set [6] is given as 35.4 µM (not active).
As to `Cc1ccccc1NC(=O)CCC(=O)OCC(=O)c1cccc([N+](=O)[O-])c1`, in data set [5], the EC50 is > 40 µM (inactive). Also, the IC50 in [6] was 33.6 µM (not active); in [7], > 100 µM (inactive).
`COc1ccccc1-c1cc(C(F)(F)F)nc(S(=O)(=O)CCCC(=O)NC(C)C)n1`: the concentration for a half-maximal effect (EC50) was > 350 µM (not active) in data set [8], 51.6 µM (active) in data set [9] and 9.33 µM (active) in data set [1]. Also, the figures for the half-maximal activity concentration (AC50) in data set [10] and in data set [11] were 6.31 µM (inconclusive) and “inconclusive”, respectively.
As for `Cc1ccc(S(=O)(=O)Cc2cn3cccnc3n2)cc1`, the AC50 is 25.1 µM (active) in data set [12], 16.2 µM (active) in data set [13] and 34.3 µM (active) in data set [14].
`COc1ccc(-n2nc(C(=O)NCC(=O)NCc3ccc(F)cc3)c3ccccc3c2=O)cc1`: the half-maximal activity concentration (AC50) in [12] was 9.62 µM (active); in [13], 5.21 µM (active); in data set [14], 9.42 µM (active).
With `Cc1c(C(=O)O)cccc1-n1c(C)cc(/C=N/Nc2ccc([N+](=O)[O-])cn2)c1C`, the EC50 in [15] is > 300 µM (not active); in data set [16] it was 50.2 µM (active). For the same compound, the half-maximal activity concentration (AC50) in data set [17] was 6.79 µM (active).
As to `CN1CCN(CC/C=C2/c3ccccc3Sc3ccc(S(=O)(=O)N(C)C)cc32)CC1`, in [2], the concentration at half-maximal activity (AC50) is 2.51 µM (inconclusive).
